This passage reports IC50 results from patent publication US20250145665A1, “MACROCYCLIC PEPTIDES USEFUL AS MODULATORS OF TNF ALPHA” (Bristol-Myers Squibb Company, priority 2023, published 2025).

Broadly, the IC50 is the concentration that inhibits the measured activity by half.

Positions of bridges follow the written chain, without caps; N, C: chain ends. Non-standard residues stand in square brackets, D forms with d. Residues, ends and D or L forms follow the SMILES beside them. Pro(trans-4-Ph) = O=C(O)[C@@H]1C[C@@H](c2ccccc2)CN1; Pro(cis-4-Ph) = O=C(O)[C@@H]1C[C@H](c2ccccc2)CN1; Ala(morpholin-4-yl) = N[C@@H](CN1CCOCC1)C(=O)O; Asp(3,3-Me2) = CC(C)(C(=O)O)[C@H](N)C(=O)O; Bip = N[C@@H](Cc1ccc(-c2ccccc2)cc1)C(=O)O; Phe(4-NH2) = Nc1ccc(C[C@H](N)C(=O)O)cc1; Val(3-OH) = CC(C)(O)[C@H](N)C(=O)O; 2Pal = N[C@@H](Cc1ccccn1)C(=O)O; 3Pal = N[C@@H](Cc1cccnc1)C(=O)O; d(αMeP) = C[C@]1(C(=O)O)CCCN1; Sar = CNCC(=O)O

The assay deals with TNFα (Homo sapiens, UniProt P01375). In words: TNF-Induced HEK-Blue Assay. As to conditions: HEK-Blue-CD40L cells, NF-kB-driven secreted alkaline phosphatase reporter; TNFα 0.5 ng/ml; 18 h; read-out: TNF induced HEK-Blue assay IC50 value. The assay is classed as cell-based.
TNFα, sequence (P01375 77-233 limits assumed): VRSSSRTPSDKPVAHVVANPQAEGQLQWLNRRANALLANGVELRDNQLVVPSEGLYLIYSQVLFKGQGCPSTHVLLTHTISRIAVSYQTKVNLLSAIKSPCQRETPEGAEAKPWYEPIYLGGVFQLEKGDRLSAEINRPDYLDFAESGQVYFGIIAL
As to `CC(C)C[C@@H]1NC(=O)[C@H](CCCNC(=N)N)NC(=O)[C@H](C(C)C)NC(=O)[C@@H]2CCCN2C(=O)[C@H](C(C)C)NC(=O)[C@H](CCCNC(=N)N)NC(=O)[C@H](CC(=O)O)NC(=O)[C@@H]2C[C@H](c3ccccc3)CN2C(=O)CN(C)C(=O)[C@H](Cc2ccc(-c3ccccc3)cc2)NC(=O)[C@H](Cc2ccc(-c3ccccc3)cc2)NC(=O)[C@H](CN2CCOCC2)NC(=O)CSC[C@@H](C(=O)NCC(N)=O)NC1=O` [Example 96] ({CH2CO}-[Ala(morpholin-4-yl)][Bip][Bip][Sar][Pro(cis-4-Ph)]DRVPVRLCG-NH2; thioether N-13), the IC50 lay within 0.05 to 0.2 µM. As to `CC(C)C[C@@H]1NC(=O)[C@H](CCCNC(=N)N)NC(=O)[C@H](C(C)C)NC(=O)[C@@H]2CCCN2C(=O)[C@H](C(C)C)NC(=O)[C@H](CCCNC(=N)N)NC(=O)[C@H](CC(=O)O)NC(=O)[C@@H]2C[C@@H](c3ccccc3)CN2C(=O)CN(C)C(=O)[C@H](Cc2ccc(-c3ccccc3)cc2)NC(=O)[C@H](Cc2ccc(-c3ccccc3)cc2)NC(=O)[C@H](CN2CCOCC2)NC(=O)CSC[C@@H](C(=O)NCC(N)=O)NC1=O` [Example 97] ({CH2CO}-[Ala(morpholin-4-yl)][Bip][Bip][Sar][Pro(trans-4-Ph)]DRVPVRLCG-NH2; thioether N-13), the IC50 fell in the range of 0.05 to 0.2 µM. Then `CC(C)C[C@@H]1NC(=O)[C@H](Cc2ccc(O)cc2)NC(=O)[C@H](C(C)C)NC(=O)[C@@H]2CCCN2C(=O)[C@H](C(C)C)NC(=O)[C@@H](CCCNC(=N)N)NC(=O)[C@H](CC(=O)O)NC(=O)[C@@H]2C[C@H](c3ccccc3)CN2C(=O)CN(C)C(=O)[C@H](Cc2ccc(-c3ccccc3)cc2)NC(=O)[C@H](Cc2ccc(-c3ccccc3)cc2)NC(=O)[C@H](CN2CCOCC2)NC(=O)CSC[C@@H](C(=O)NCC(N)=O)NC1=O` [Example 98] ({CH2CO}-[Ala(morpholin-4-yl)][Bip][Bip][Sar][Pro(cis-4-Ph)]D[dR]VPVYLCG-NH2; thioether N-13), with 0.05 to 0.2 µM.

As to `CC(C)C[C@@H]1NC(=O)[C@H](Cc2ccc(O)cc2)NC(=O)[C@H](C(C)C)NC(=O)[C@@H]2CCCN2C(=O)[C@H](C(C)C)NC(=O)[C@@H](CCCNC(=N)N)NC(=O)[C@H](CC(=O)O)NC(=O)[C@@H]2C[C@@H](c3ccccc3)CN2C(=O)CN(C)C(=O)[C@H](Cc2ccc(-c3ccccc3)cc2)NC(=O)[C@H](Cc2ccc(-c3ccccc3)cc2)NC(=O)[C@H](CN2CCOCC2)NC(=O)CSC[C@@H](C(=O)NCC(N)=O)NC1=O` [Example 99] ({CH2CO}-[Ala(morpholin-4-yl)][Bip][Bip][Sar][Pro(trans-4-Ph)]D[dR]VPVYLCG-NH2; thioether N-13), the IC50 was in the range of 0.2 to 2 µM. In the case of `CC(C)C[C@@H]1NC(=O)[C@H](Cc2ccc(O)cc2)NC(=O)[C@H](C(C)C)NC(=O)[C@@H]2CCCN2C(=O)[C@H](C(C)C)NC(=O)[C@H](CCCNC(=N)N)NC(=O)[C@H](C(C)(C)C(=O)O)NC(=O)[C@H](Cc2ccc(O)cc2)NC(=O)CN(C)C(=O)[C@H](Cc2ccc(-c3ccccc3)cc2)NC(=O)[C@H](Cc2ccc(-c3ccccc3)cc2)NC(=O)[C@H](CN2CCOCC2)NC(=O)CSC[C@@H](C(=O)NCC(N)=O)NC1=O` [Example 100] ({CH2CO}-[Ala(morpholin-4-yl)][Bip][Bip][Sar]Y[Asp(3,3-Me2)]RVPVYLCG-NH2; thioether N-13), the half-maximal inhibitory concentration (IC50) lay in the range of 0.2 to 2 µM. On to `CC(C)C[C@@H]1NC(=O)[C@H](Cc2ccc(O)cc2)NC(=O)[C@H](C(C)C)NC(=O)[C@@H]2CCCN2C(=O)[C@H](C(C)C)NC(=O)[C@H](CCCNC(=N)N)NC(=O)[C@H](CC(=O)O)NC(=O)[C@@]2(C)CCCN2C(=O)CN(C)C(=O)[C@H](Cc2ccc(-c3ccccc3)cc2)NC(=O)[C@H](Cc2ccc(-c3ccccc3)cc2)NC(=O)[C@H](CN2CCOCC2)NC(=O)CSC[C@@H](C(=O)NCC(N)=O)NC1=O` [Example 101] ({CH2CO}-[Ala(morpholin-4-yl)][Bip][Bip][Sar][d(αMeP)]DRVPVYLCG-NH2; thioether N-13), for which the half-inhibitory concentration (IC50) is 0.05 to 0.2 µM. With `CC(C)C[C@@H]1NC(=O)[C@H](Cc2ccc(O)cc2)NC(=O)[C@H](C(C)C)NC(=O)[C@@H]2CCCN2C(=O)[C@H](C(C)C)NC(=O)[C@@H](CCCNC(=N)N)NC(=O)[C@H](CC(=O)O)NC(=O)[C@@]2(C)CCCN2C(=O)CN(C)C(=O)[C@H](Cc2ccc(-c3ccccc3)cc2)NC(=O)[C@H](Cc2ccc(-c3ccccc3)cc2)NC(=O)[C@H](CN2CCOCC2)NC(=O)CSC[C@@H](C(=O)NCC(N)=O)NC1=O` [Example 102] ({CH2CO}-[Ala(morpholin-4-yl)][Bip][Bip][Sar][d(αMeP)]D[dR]VPVYLCG-NH2; thioether N-13), the IC50 was 0.2 to 2 µM. In the case of `CC(C)C[C@@H]1NC(=O)[C@H](CCCNC(=N)N)NC(=O)[C@H](C(C)C)NC(=O)[C@@H]2CCCN2C(=O)[C@H](C(C)C)NC(=O)[C@@H](CCCNC(=N)N)NC(=O)[C@H](CC(=O)O)NC(=O)[C@@]2(C)CCCN2C(=O)CN(C)C(=O)[C@H](Cc2ccc(-c3ccccc3)cc2)NC(=O)[C@H](Cc2ccc(-c3ccccc3)cc2)NC(=O)[C@H](CN2CCOCC2)NC(=O)CSC[C@@H](C(=O)NCC(N)=O)NC1=O` [Example 103] ({CH2CO}-[Ala(morpholin-4-yl)][Bip][Bip][Sar][d(αMeP)]D[dR]VPVRLCG-NH2; thioether N-13), the IC50 fell in the range of 0.2 to 2 µM. As for `CC(C)C[C@@H]1NC(=O)[C@H](CCCNC(=N)N)NC(=O)[C@H](Cc2ccccc2)NC(=O)[C@@H]2CCCN2C(=O)[C@H](C(C)C)NC(=O)[C@@H](CCCNC(=N)N)NC(=O)[C@H](CC(=O)O)NC(=O)[C@@H]2CCCN2C(=O)CN(C)C(=O)[C@H](Cc2ccc(-c3ccccc3)cc2)NC(=O)[C@H](Cc2ccc(-c3ccccc3)cc2)NC(=O)[C@H](CN2CCOCC2)NC(=O)CSC[C@@H](C(=O)NCC(N)=O)NC1=O` [Example 104] ({CH2CO}-[Ala(morpholin-4-yl)][Bip][Bip][Sar]PD[dR]VPFRLCG-NH2; thioether N-13), the IC50 was 0.2 to 2 µM. For the compound `CC(C)C[C@@H]1NC(=O)[C@H](Cc2ccc(O)cc2)NC(=O)[C@H](C(C)C)NC(=O)[C@H](Cc2cccnc2)NC(=O)[C@H](C(C)C)NC(=O)[C@H](CCCNC(=N)N)NC(=O)[C@H](CC(=O)O)NC(=O)[C@H](Cc2ccc(O)cc2)NC(=O)CN(C)C(=O)[C@H](Cc2ccc(-c3ccccc3)cc2)NC(=O)[C@H](Cc2ccc(-c3ccccc3)cc2)NC(=O)[C@H](C(C)(C)O)NC(=O)CSC[C@@H](C(=O)NCC(N)=O)NC1=O` [Example 106] ({CH2CO}-[Val(3-OH)][Bip][Bip][Sar]YDRV[3Pal]VYLCG-NH2; thioether N-13), the IC50 lay within 0.05 to 0.2 µM.

Consider `CC(C)C[C@@H]1NC(=O)[C@H](Cc2ccc(O)cc2)NC(=O)[C@H](C(C)C)NC(=O)[C@H](Cc2cccnc2)NC(=O)[C@H](C(C)C)NC(=O)[C@H](CCCNC(=N)N)NC(=O)[C@H](CC(=O)O)NC(=O)[C@H](Cc2ccc(O)cc2)NC(=O)CN(C)C(=O)[C@H](Cc2ccc(-c3ccccc3)cc2)NC(=O)[C@H](Cc2ccc(-c3ccccc3)cc2)NC(=O)[C@H](CN2CCOCC2)NC(=O)CSC[C@@H](C(=O)NCC(N)=O)NC1=O` [Example 107] ({CH2CO}-[Ala(morpholin-4-yl)][Bip][Bip][Sar]YDRV[3Pal]VYLCG-NH2; thioether N-13), for which the IC50 fell in the range of 0.05 to 0.2 µM. In the case of `CC(C)C[C@@H]1NC(=O)[C@H](CCCNC(=N)N)NC(=O)[C@H](C(C)C)NC(=O)[C@H](Cc2ccccn2)NC(=O)[C@H](C(C)C)NC(=O)[C@H](CCCNC(=N)N)NC(=O)[C@H](CC(=O)O)NC(=O)[C@@H]2CCCN2C(=O)CN(C)C(=O)[C@H](Cc2ccc(-c3ccccc3)cc2)NC(=O)[C@H](Cc2ccc(-c3ccccc3)cc2)NC(=O)[C@H](C(C)(C)O)NC(=O)CSC[C@@H](C(=O)NCC(N)=O)NC1=O` [Example 108] ({CH2CO}-[Val(3-OH)][Bip][Bip][Sar]PDRV[2Pal]VRLCG-NH2; thioether N-13), the IC50 lay in the range of 0.05 to 0.2 µM. Regarding `CC(C)C[C@@H]1NC(=O)[C@H](Cc2ccc(O)cc2)NC(=O)[C@H](C(C)C)NC(=O)[C@H](Cc2ccccn2)NC(=O)[C@H](C(C)C)NC(=O)[C@H](CCCNC(=N)N)NC(=O)[C@H](CC(=O)O)NC(=O)[C@H](Cc2ccc(O)cc2)NC(=O)CN(C)C(=O)[C@H](Cc2ccc(-c3ccccc3)cc2)NC(=O)[C@H](Cc2ccc(-c3ccccc3)cc2)NC(=O)[C@H](CN2CCOCC2)NC(=O)CSC[C@@H](C(=O)NCC(N)=O)NC1=O` [Example 109] ({CH2CO}-[Ala(morpholin-4-yl)][Bip][Bip][Sar]YDRV[2Pal]VYLCG-NH2; thioether N-13), the half-inhibitory concentration (IC50) lay in the range of 0.2 to 2 µM. Next, `CC(C)C[C@@H]1NC(=O)[C@H](Cc2ccc(O)cc2)NC(=O)[C@H](C(C)C)NC(=O)[C@@H]2CCCN2C(=O)[C@H](Cc2ccc(O)cc2)NC(=O)[C@H](CCCNC(=N)N)NC(=O)[C@H](CC(=O)O)NC(=O)[C@H](Cc2ccc(O)cc2)NC(=O)CN(C)C(=O)[C@H](Cc2ccc(-c3ccccc3)cc2)NC(=O)[C@H](Cc2ccc(-c3ccccc3)cc2)NC(=O)[C@H](C(C)(C)O)NC(=O)CSC[C@@H](C(=O)NCC(N)=O)NC1=O` [Example 110] ({CH2CO}-[Val(3-OH)][Bip][Bip][Sar]YDRYPVYLCG-NH2; thioether N-13): 0.05 to 0.2 µM; `CC(C)C[C@@H]1NC(=O)[C@H](Cc2ccc(O)cc2)NC(=O)[C@H](C(C)C)NC(=O)[C@@H]2CCCN2C(=O)[C@H](Cc2ccc(O)cc2)NC(=O)[C@H](CCCNC(=N)N)NC(=O)[C@H](CC(=O)O)NC(=O)[C@@H]2CCCN2C(=O)CN(C)C(=O)[C@H](Cc2ccc(-c3ccccc3)cc2)NC(=O)[C@H](Cc2ccc(-c3ccccc3)cc2)NC(=O)[C@H](C(C)(C)O)NC(=O)CSC[C@@H](C(=O)NCC(N)=O)NC1=O` [Example 111] ({CH2CO}-[Val(3-OH)][Bip][Bip][Sar]PDRYPVYLCG-NH2; thioether N-13): 0.2 to 2 µM. As for `CC(C)C[C@@H]1NC(=O)[C@H](Cc2ccc(O)cc2)NC(=O)[C@H](C(C)C)NC(=O)[C@@H]2CCCN2C(=O)[C@H](Cc2ccc(N)cc2)NC(=O)[C@H](CCCNC(=N)N)NC(=O)[C@H](CC(=O)O)NC(=O)[C@H](Cc2ccc(O)cc2)NC(=O)CN(C)C(=O)[C@H](Cc2ccc(-c3ccccc3)cc2)NC(=O)[C@H](Cc2ccc(-c3ccccc3)cc2)NC(=O)[C@H](CN2CCOCC2)NC(=O)CSC[C@@H](C(=O)NCC(N)=O)NC1=O` [Example 112] ({CH2CO}-[Ala(morpholin-4-yl)][Bip][Bip][Sar]YDR[Phe(4-NH2)]PVYLCG-NH2; thioether N-13), the IC50 lay within 0.2 to 2 µM.
